Entries after “also recorded” stand apart in the source; their conditions may differ. Like-named read-outs stand apart in the source and are kept apart here.
Tests used:
LS180 cells [1] = assay: Effect of IAA (hexokinase inhibition) on accumulation and metabolism of FDG and AFDG; assay type: cell-based, human
Text: (§1) Then, cells were washed three times with a cold PBS, lysed with 50% ethanol and assayed for metabolites.

LS180 cells [2] = assay: Time-course accumulation of FDG and AFDG in LS180 tumor cells; assay type: cell-based, human
Description: LS180 cells were stripped off from the petri dish using trypsin, inoculated on a plate having 24 holes at a concentration of 20×10^4 cells/ml and subjected to the uptake experiment after 24 hours. […] Radioactivity of the lysed solution was measured by an Autowell gamma counter (ARC-2000, manufactured by Aloka corporation).

LS180 cells [3] = assay: Effect of extracellular glucose concentration on accumulation and metabolism of FDG and AFDG; assay type: cell-based, human
Description: Then, cells were washed three times with a cold PBS, lysed with 50% ethanol and the lysate was assayed for metabolites.

LS180 cells [4] = assay: Effect of DNP on accumulation and metabolism of FDG and AFDG; assay type: cell-based, human
Text: as §1

LS180 cells [5] = assay: Effect of AFDG administration on accumulation of glucose; assay type: cell-based, human; settings: amount used in this experiment
LS180 cells [6] = assay: Temperature dependence of intracellular accumulation of AFDG; assay type: cell-based, human; settings: 60 minutes after administration, 5 μCi
Description: In order to study the temperature dependence of intracellular accumulation of AFDG, an uptake experiment was conducted different from Experiment 1. Cells were suspended in a culture medium at a concentration of 1×10^6 cells/ml and incubated in portions of 1 ml at 4° C. or 37° C. for 15 minutes. Then, 5 μCi of AFDG was added and incubated for 2, 5, 10, 30 and 60 minutes, respectively. At every determined times, cells were centrifuged to make a pellet, which was washed with a cold PBS. After washing twice, the pellet was lysed by 0.2N NaOH solution and assayed for radioactivity.

LS180 cells [7] = assay: Metabolism of AFDG and FDG in LS180 cells (TLC of metabolites); assay type: cell-based, human
Description: After carrying out an experiment according to Experiment 1, cells were stripped off from the plate using 100 μl of 50% ethanol and the solution was centrifuged at 15000 rpm. A 25 μl aliquot of supernatant was subjected to analysis of metabolites by thin-layer chromatography (TLC). The eluent was acetonitrile/water=95/5, and the carrier was silica gel 60. The plate after development was cut at 5 mm intervals and assayed for radioisotope with a gammer counter. Total radioactivity of respective metabolites were calculated from the ratio of metabolites obtained in TLC.

LS180 cells [8] = assay: Effect of administered dose of AFDG on its intracellular accumulation; assay type: cell-based, human; settings: increase of the dose of AFDG
GLUT = assay: Effect of DNP on rate of uptake of 3-OMG (GLUT transport) in LS180 cells; assay type: cell-based, human
Text: While it is known that 2,4-dinitrophenol, an uncoupling agent for mitochondrion, causes expression of GLUT on cell membrane to normal cells by a transient decrease of intracellular ATP as a trigger, it has not been confirmed that it has a similar effect on tumor cells. Therefore, transport of [H-3]-3-O-methylglucose in the DNP-treated tumor cells was studied for the case in which GLUT was inhibited by cytocharasin B and for the case in which it was not inhibited, respectively. [H-3]-3-O-methylglucose is a D-glucose derivative which is not subjected to metabolism such as phosphorylation after take up into cells and therefore can suitably be used in an experiment for studying transport ability of GLUT. In the case of DNP treatment, accumulation of [H-3]-3-O-methylglucose was increased by about 70% as compared with the case of no treatment (Table 1), and therefore it was considered that the amount of GLUT expressed on the cell membrane was increased by 70% with the treatment by DNP. The increase in amount was by far smaller than the increase described for normal cells. This is due to the fact that the amount of GLUT expressed on the tumor cell membrane is by far greater than the amount for normal cells.
For studying uptake of [H-3 ]-3-O-methylglucose (3-OMG) into cells excluding nonspecific bonding, usually cytocharasin B is used. After incubating 10^6 LS180 cells in a medium containing 200 μM DNP placed in a plate having 24 holes, the medium was changed to a medium containing 5 μCi 3-OMG and 200 μM […], respectively, and additionally 50 μM cytocharasin B or a medium without cytocharasin B and the respective cultures were incubated for 60 seconds. Immediately after, the medium was removed and cells were washed three times with a cold PBS containing 0.1 mM phloretin and lysed with 500 μl of 0.2 N NaOH solution. After lysis, a 200 μl portion was used for quantitative determination of proteins and the remaining 300 μl was mixed with a scintillator and radioactivity was measured by a liquid scintillation counter (LSC 5000, manufactured by Aloka corporation). The taken-up amount of 3-OMG which may be inhibited by cytocharasin B was integrated from the difference in mean values of 10 holes in the plate for 3-OMG uptake without cytocharasin B. The results of the experiment are shown in Table 1.

hexokinase = settings: 5 μM IAA, 37° C.; inferred from accumulation of FDG
Text: as §1

In the case of `OC[C@H]1OC(O)[C@H]([18F])[C@@H](O)[C@@H]1O` (stereo partly shown) [FDG, 2-[F-18]fluorodeoxyglucose, reference compound], the “intracellular accumulation in the presence of IAA” value (LS180 cells [1]) is reported as “remarkably decreased”, the “accumulation in time course” value (LS180 cells [2]) is reported as “accumulated and increased almost linearly” and the “intracellular accumulation on doubling glucose concentration in medium” value (LS180 cells [3]) is reported as “decreased”. For the same compound, the “intracellular accumulation in the presence of DNP” value (LS180 cells [4]) was “increased” and the activation at 200 µM (LS180 cells [4]; Homo sapiens, LS180, read-out: increase of uptake of FDG with DNP) was roughly 80%.

In the case of `CC(=O)OC[C@H]1OC(OC(C)=O)[C@H]([18F])[C@@H](OC(C)=O)[C@@H]1OC(C)=O` (stereo partly shown) [AFDG, 1,3,4,6-tetra-O-acetyl-2-[F-18]fluorodeoxyglucose], the “intracellular accumulation in the presence of IAA” value (LS180 cells [1]; 5 μM IAA, 37° C.) is reported as “remarkably decreased”, the “accumulation in time course” value (LS180 cells [2]; LS180 cells, 2 to 60 minutes, 5 μCi) is reported as “accumulated rapidly in cells in a nonlinear manner” and the “mechanism of uptake into cells” value (LS180 cells [2]; concluded from the experiments) is reported as “taken up by simple diffusion”. The “accumulation of glucose when AFDG was administered” value (LS180 cells [5]) was “not inhibited”, the “production of FDG-6P on doubling glucose concentration in medium” value (LS180 cells [3]; 11.2 mM vs 22.4 mM glucose, 60 minutes) was “did not change; also recorded: no change was observed; also recorded: substantially not affected” and the “intracellular accumulation on doubling glucose concentration in medium” value (LS180 cells [3]; 11.2 mM vs 22.4 mM glucose, 60 minutes, after AFDG: accumulation of FDG (hydrolysate)) was “did not change; also recorded: substantially not affected”. The “accumulation of AFDG at 4° C. relative to that at 37° C.” value (LS180 cells [6]) was “one fourth”, the “presence of FDG and FDG-6P in cells after uptake of AFDG” value (LS180 cells [7]; 5 minutes after administration) was “substantially absent” and the “production of FDG-6P from AFDG relative to that from FDG” value (LS180 cells [7]; 60 minutes after administration) was 1.63 times. The “FDG-6P share of total intracellular radioactivity (sum of AFDG, FDG and FDG-6P)” value (LS180 cells [7]; 60 minutes after administration of AFDG) was “about 50%”, the “hydrolysis of AFDG to FDG in cells” value (LS180 cells [7]; by esterase, intracellular) was “quickly hydrolyzed by esterase to FDG and quickly hydrolyzed to form FDG and fast” and the “stability in the extracellular medium” value (LS180 cells [7]; extracellular medium) was “stable”. For the same compound, the “velocity of hydrolysis of AFDG compared with phosphorylation of FDG” value (LS180 cells [7]; intracellular) was “greater”, the “accumulation of AFDG and that of FDG after administration of AFDG” value (LS180 cells [7]; time course after 5 minutes) was “followed a constant course” and the “accumulation of FDG-6P after administration of AFDG” value (LS180 cells [7]; time course after 5 minutes) was “increased linearly with passage of time”. For the same compound, the “change in intracellular accumulation with administered dose” value (LS180 cells [8]) was “increased with the increase of the dose of AFDG”, the “FDG-6P derived from AFDG in the presence of DNP” value (LS180 cells [4]; 200 μM DNP, 37° C.) was “decreased” and the “intracellular accumulation in the presence of DNP” value (LS180 cells [4]; 200 μM DNP, 37° C.) was “decreased”.

`CO[C@H]1[C@H](O)[C@@H](CO)OC(O)[C@@H]1O` (stereo partly shown) [[H-3]3-OMG, [H-3]-3-O-methylglucose] was tested, and the “Accumulation of [H-3]3-OMG, Difference, DNP treatment” value (GLUT; Cytocharasin B absent minus present, 200 μM DNP) was 3460 dpm/min/100 μg protein, the “Accumulation of [H-3]3-OMG, Difference, Control” value (GLUT; Cytocharasin B absent minus present, no DNP) was 2014 dpm/min/100 μg protein and the “Accumulation of [H-3]3-OMG, DNP treatment” value (GLUT; Cytocharasin B absent, 200 μM DNP) was 4763 ± 669 dpm/min/100 μg protein. The “Accumulation of [H-3]3-OMG, Control” value (GLUT; Cytocharasin B absent, no DNP) was 3235 ± 307 dpm/min/100 μg protein, the “Accumulation of [H-3]3-OMG, DNP treatment” value (GLUT; Cytocharasin B present (50 μM), 200 μM DNP) was 1303 ± 229 dpm/min/100 μg protein and the “Accumulation of [H-3]3-OMG, Control” value (GLUT; Cytocharasin B present (50 μM), no DNP) was 1511 ± 231 dpm/min/100 μg protein. For the same compound, the “increase of accumulation of [H-3]-3-O-methylglucose with DNP treatment” value (GLUT; compared with no treatment) was “about 70%”, the “Difference relative to control, Control” value (GLUT; in parentheses, no DNP) was 1.00 and the “Difference relative to control, DNP treatment” value (GLUT; ls180 cells, 200 µM) was 1.71.

`O=[N+]([O-])c1ccc(O)c([N+](=O)[O-])c1` [DNP, 2,4-dinitrophenol] was tested, and the “increase of amount of GLUT expressed on the cell membrane with DNP” value (GLUT; inferred from 3-OMG accumulation) was 70%.

`O=C(O)CI` [IAA, iodoacetate] was tested, and the “hexokinase activity in the presence of IAA” value (hexokinase) was “remarkably decreased”.

— US5904915A, “Method of diagnosing pathological state of tumor cells using a diagnostic agent for glycometabolic function” (Nihon Medi-Physics Co., Ltd., priority 1996, dated 1999)
